Tested on: ZR-75-1 xenograft tumors
Assay: In vivo target inhibition, immunoblotting of ZR-75-1 xenograft tumors
Set-up: species or system mouse
Conditions: 50 or 75 mg/kg QD x 5, Western blots
Procedure: Control animals were treated with vehicle (1% HEC/ 25 mM phosphate buffer, pH = 2) using the same schedule of dosing. The red bar just above the X-axis illustrates the duration of the treatment period. Tumor volume measurements were taken routinely during the course of the study and are plotted as mean +/- SEM versus days following tumor cell implantation. (B) Body weights were recorded routinely during the course of the study and are plotted as mean % change (+/– SEM) relative to the mean body weight recorded on the day just prior to the first day of dosing (baseline day = 27). (C) The waterfall plots indicate the relative tumor volumes for individual animals which were determined at the end of the dosing period (study day 55). […] Growth inhibition is observed in those instances where the calculated changes in %DT/C are less than 100% whereby greater inhibition results in smaller %DT/C values. Change in %DT/C values that are less than zero indicate regressions whereby the tumor volumes on day 55 are smaller than the baseline tumor volume measured on the day prior to the initiation of dosing (baseline day = day 27). […] The tumor volumes measured on day 27 served as the baseline volumes for the calculation of %DT/C. […] Potential CDK9 inhibition was assessed by measuring the expression of MCL1 or phosphorylation of serine 2 on the C-terminal domain repeat on RNA polymerase II (pCTD). […]

For `CCN1CCN(Cc2ccc(Nc3ncc(F)c(-c4cc(F)c5nc(C)n(C(C)C)c5c4)n3)nc2)CC1` [abemaciclib, Abemaciclib], the “CDK9 inhibition in tumors (pCTD, MCL1 expression)” value was “not inhibited at any dose” and the “phospho-(Ser780/807/811)-Rb, Topo IIα and phospho-(Ser10)-H3 in tumors” value (tumors collected 24 hours later) was “inhibition of phospho-(Ser780/807/811)-Rb”.
